Data published in patent US20090220997A1, “Stimulating G Protein-Coupled Receptors” (MAYO FOUNDATION FOR MEDICAL EDUCATION AND RESEARCH, priority 2005, published 2009).
Bridge positions count the residues as written; N and C are the ends. Square brackets hold non-standard residues; d marks the D form. Ends that are not written are not given here. Dap = NC[C@H](N)C(=O)O

What was measured:
secretin receptor = biological target: T1, secretin receptor (Rattus norvegicus, UniProt P23811); assay: cAMP accumulation in CHO cells expressing the secretin receptor (CHO-SecR); assay type: cell-based; settings: for agonist activity (stimulation of cAMP accumulation): 30 min at 37° C.; for potency (cAMP accumulation), relative comparison: secretin receptor (SecR)
T1 construct: expressed in transfected cells; host or cells: CHO (CHO-SecR)
T1 sequence (P23811 26-449): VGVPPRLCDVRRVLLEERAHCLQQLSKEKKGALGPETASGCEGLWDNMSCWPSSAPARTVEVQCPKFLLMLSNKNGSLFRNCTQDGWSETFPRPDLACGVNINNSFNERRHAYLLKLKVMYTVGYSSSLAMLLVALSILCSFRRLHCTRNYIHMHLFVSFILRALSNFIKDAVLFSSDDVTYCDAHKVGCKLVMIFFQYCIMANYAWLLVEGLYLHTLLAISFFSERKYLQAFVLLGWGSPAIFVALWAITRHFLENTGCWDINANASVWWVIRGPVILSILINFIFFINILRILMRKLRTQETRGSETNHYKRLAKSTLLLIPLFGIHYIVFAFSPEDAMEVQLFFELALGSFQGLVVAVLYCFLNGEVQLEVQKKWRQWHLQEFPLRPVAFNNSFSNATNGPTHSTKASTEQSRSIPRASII
Source text: (§1) FIG. 2 contains a series of graphs plotting accumulation of cAMP versus concentration of polypeptide used to stimulate cells. Presented in panel A are curves of cAMP accumulation in Chinese hamster ovary cells expressing the secretin receptor (CHO-SecR), and in the cells of the parental CHO cell line not expressing the secretin receptor, in response to increasing concentrations of secretin or a synthetic polypeptide (SEQ ID NO:1) corresponding to the region of the amino terminus of the secretin receptor between the first and third conserved cysteine residues, Cys^24 and Cys^53 (corresponding to residues 46 to 75 of GenBank Accession Number AAH81781). Presented in panel B are curves of cAMP accumulation in CHO-SecR cells in response to increasing concentrations of the indicated pentapeptide (SEQ ID NO:3), tripeptides, or dipeptides. Presented in panel C are curves of cAMP accumulation in CHO-SecR cells in response to increasing concentrations of a linear tripeptide, cyclic tripeptides, or a myristolated cyclic tripeptide. Adherent cells that were 75 percent confluent were stimulated with the polypeptide in Krebs-Ringers-HEPES medium for 30 min at 37° C. Cellular cAMP was quantified as previously reported (Holtmann et al., J. Biol. Chem. 270, 14394 (1995)). Values represent means±S.E.M. of data from a minimum of three independent assays performed in duplicate. Myr indicates myristoylated cyclic tripeptide.
It was determined whether a synthetic polypeptide corresponding to the region of the secretin receptor amino terminus between residues 24 and 53 (FIG. 1), which shares no homology with any part of the natural agonist polypeptide, could act as an endogenous agonist ligand. […] The cAMP response was dependent on the concentration of the polypeptide. […] The polypeptide had no effect on cAMP levels in the parental CHO cell line, even at concentrations as high as 100 μM (FIG. 2A).

Class B receptors = assay: cAMP accumulation in cells expressing Class B receptors; assay type: cell-based; settings: receptors other than the corresponding receptor
Source text: (§2) FIG. 4 contains a series of graphs plotting cAMP accumulation versus concentration of amino-terminal polypeptides from the calcitonin (residues 73-80; SEQ ID NO:6) and VPAC1 (residues 51-71; SEQ ID NO:4) receptors that were used to stimulate cells expressing Class B receptors.
(§3) FIG. 6 contains a series of graphs plotting cAMP accumulation versus concentration of the WDN tripeptide or amino-terminal polypeptides from the VPAC1 receptor (residues 51-71; SEQ ID NO:4), the calcitonin receptor (residues 73-80; SEQ ID NO:6), and the GLP1R (residues 63-70; SEQ ID NO:22) that were used to stimulate cells expressing Class B receptors as indicated.
(§4) Polypeptides representing the analogous region of the amino terminus of the Class B G protein-coupled calcitonin and VPAC1 receptors (FIG. 1) were also synthesized. […] The agonist activity of these endogenous polypeptides was not limited to the corresponding receptors. The polypeptides were also active at other structurally-related family members (FIG. 4).
(§5) Additional experiments were performed and curves were regenerated (FIG. 6), as described herein and as described elsewhere (Dong et al., Mol. Pharmacol., 70(1):206-13 (2006)). […] Each polypeptide used to generate the data presented in FIG. 6 was a cyclic polypeptide, except for the VPAC1(51-71) polypeptide. […]

VPAC1 receptor = biological target: T2, VPAC1 receptor (Rattus norvegicus, UniProt P30083); assay: cAMP accumulation in cells expressing the VPAC1 receptor; assay type: cell-based
T2 sequence (P30083 31-459): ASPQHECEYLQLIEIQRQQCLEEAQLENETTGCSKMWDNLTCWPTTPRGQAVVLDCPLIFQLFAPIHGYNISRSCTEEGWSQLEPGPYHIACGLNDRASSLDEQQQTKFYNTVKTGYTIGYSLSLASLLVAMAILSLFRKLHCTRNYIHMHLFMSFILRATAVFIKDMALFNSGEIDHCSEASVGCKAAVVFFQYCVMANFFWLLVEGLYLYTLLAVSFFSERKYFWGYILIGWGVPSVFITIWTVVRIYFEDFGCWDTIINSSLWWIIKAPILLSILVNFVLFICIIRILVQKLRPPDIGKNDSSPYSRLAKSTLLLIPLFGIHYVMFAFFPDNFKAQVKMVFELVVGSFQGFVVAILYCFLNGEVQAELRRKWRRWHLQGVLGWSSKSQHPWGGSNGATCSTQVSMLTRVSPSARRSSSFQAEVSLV
Source text: as §2, §3, §4, §5

human GLP1R = human GLP1R (Homo sapiens, UniProt P43220); assay: cAMP accumulation in cells expressing the GLP1R; assay type: cell-based
Chain of human GLP1R (P43220 24-463 L260F/A316G): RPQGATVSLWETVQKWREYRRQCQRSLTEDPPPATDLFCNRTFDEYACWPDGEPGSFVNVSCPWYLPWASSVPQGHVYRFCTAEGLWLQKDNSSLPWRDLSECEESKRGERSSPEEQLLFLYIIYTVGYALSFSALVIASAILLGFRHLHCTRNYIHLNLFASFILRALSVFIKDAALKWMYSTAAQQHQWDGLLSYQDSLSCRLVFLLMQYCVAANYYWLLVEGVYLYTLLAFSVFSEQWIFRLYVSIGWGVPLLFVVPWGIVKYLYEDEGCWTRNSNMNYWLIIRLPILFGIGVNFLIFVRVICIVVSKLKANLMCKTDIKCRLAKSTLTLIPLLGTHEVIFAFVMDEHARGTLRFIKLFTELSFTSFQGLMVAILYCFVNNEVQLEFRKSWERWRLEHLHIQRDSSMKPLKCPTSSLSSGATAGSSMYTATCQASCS
Method: as §3
Additional experiments were performed and curves were regenerated (FIG. 6), as described herein and as described elsewhere (Dong et al., Mol. Pharmacol., 70(1):206-13 (2006)). […] Each polypeptide used to generate the data presented in FIG. 6 was a cyclic polypeptide, except for the VPAC1(51-71) polypeptide. Linear versions of each polypeptide were also tested and found to behave in a similar manner as the corresponding cyclic polypeptides, with similar potencies and efficacies.

calcitonin receptor = biological target: T3, calcitonin receptor (Homo sapiens, UniProt P30988); assay: cAMP accumulation in cells expressing the calcitonin receptor; assay type: cell-based
T3 sequence (P30988 25-474): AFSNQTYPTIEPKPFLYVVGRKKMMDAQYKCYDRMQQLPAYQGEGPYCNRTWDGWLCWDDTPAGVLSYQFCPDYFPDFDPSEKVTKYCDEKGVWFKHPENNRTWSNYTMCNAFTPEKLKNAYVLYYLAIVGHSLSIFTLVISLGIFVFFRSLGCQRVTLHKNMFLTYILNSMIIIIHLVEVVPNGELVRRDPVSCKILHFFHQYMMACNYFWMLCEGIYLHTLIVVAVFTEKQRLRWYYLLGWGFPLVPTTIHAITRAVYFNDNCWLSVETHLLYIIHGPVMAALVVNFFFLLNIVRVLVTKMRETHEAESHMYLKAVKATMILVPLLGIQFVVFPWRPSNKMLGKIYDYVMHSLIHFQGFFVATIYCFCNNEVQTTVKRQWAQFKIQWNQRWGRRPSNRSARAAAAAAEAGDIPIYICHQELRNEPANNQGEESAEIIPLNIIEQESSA
Source text: as §2, §4

[1] = tested on: parental CHO cell line not expressing the secretin receptor; assay: cAMP accumulation in parental CHO cell line; assay type: cell-based, Chinese hamster; settings: concentrations as high as 100 μM
Source text: as §1, with “Presented in panel C are curves of cAMP accumulation in CHO-SecR cells in response to increasing concentrations of a linear tripeptide, cyclic tripeptides, or a myristolated cyclic tripeptide. Adherent cells that were 75 percent confluent were stimulated with the polypeptide in Krebs-Ringers-HEPES medium for 30 min at 37° C.” left out, “Values represent means±S.E.M. of data from a minimum of three independent assays performed in duplicate. Myr indicates myristoylated cyclic tripeptide.” left out
It was determined whether a synthetic polypeptide corresponding to the region of the secretin receptor amino terminus between residues 24 and 53 (FIG. 1), which shares no homology with any part of the natural agonist polypeptide, could act as an endogenous agonist ligand. […]

[2] = tested on: Class A G protein-coupled cholecystokinin receptor; assay: cAMP levels in CHO cell lines expressing cholecystokinin receptor; assay type: cell-based; settings: CHO cell lines expressing high concentrations of cholecystokinin receptor

## leucine-tryptophan-aspartate-asparagine-methionine [LWDNM]
Secretin receptor; CHO-SecR cells
  agonist activity (stimulation of cAMP accumulation): Agonist activity was maintained

## myristoylated cyclic tripeptide: cyclic WDN polypeptide modified by fatty acid acylation (myristoyl group) ([Dap]WDND; lactam N-C; also: myristoyl group, site not given here)
Secretin receptor
  potency (cAMP accumulation), relative comparison: further enhanced

## VPAC1(51-71): polypeptide corresponding to amino acids 51 to 71 of the rat VPAC1 receptor ([Dap]LEEAQLENETTGSSKMWDNLTD; not fully specified (bridges))
Class B receptors
  activity at other structurally-related family members: also active
VPAC1 receptor
  agonist activity (cAMP accumulation): low potency agonist activity
Human GLP1R
  agonist activity (cAMP accumulation): active as agonists

## CTR(73-80): polypeptide corresponding to amino acids 73 to 80 of the human calcitonin receptor ([Dap]NRTWDGWLD; not fully specified (bridges); listed as Homo sapiens)
Calcitonin receptor
  agonist activity (cAMP accumulation): low potency agonist activity
Class B receptors
  activity at other structurally-related family members: also active

## SecR(24-53): polypeptide corresponding to amino acids 46 to 75 of the rat secretin receptor (SEQ ID NO:1) ([Dap]CLQQLSKEKKGALGPETASGSEGLWDNMSCD; cysteine pairing not given here)
Secretin receptor; CHO-SecR cells
  agonist activity (stimulation of cAMP accumulation): weakly potent agonist
[1]
  effect on cAMP levels: no effect
[2]
  effect on cAMP levels: did not affect cAMP levels

## cyclic WDN (tryptophan-aspartate-asparagine) tripeptide
Secretin receptor; CHO-SecR cells
  efficacy (cAMP accumulation): maintained full efficacy
Secretin receptor
  potency (cAMP accumulation), relative comparison: enhanced relative to that of the linear polypeptide
Human GLP1R
  agonist activity (cAMP accumulation): active as agonists

## GLP1R(63-70): polypeptide corresponding to amino acid residues 63 to 70 of the human GLP1R (NRTFDEYA; listed as Homo sapiens)
Secretin receptor; CHO-SecR cells
  agonist activity (stimulation of cAMP accumulation): active as an agonist
VPAC1 receptor
  agonist activity (cAMP accumulation): active as an agonist
Human GLP1R
  agonist activity (cAMP accumulation): active as an agonist

## tryptophan-aspartate-asparagine [linear tripeptide]
Secretin receptor; CHO-SecR cells
  agonist activity (stimulation of cAMP accumulation): stimulated cAMP accumulation
